Results reported in patent US10829756B2, “Discovery of enzymes from the alpha-keto acid decarboxylase family” (Regents of the University of California, priority 2015, dated 2020).

Legend:
[1] = test system: Streptomyces sp. C GEO175 variant L376T_T240S, SEQ ID NO:19; assay: Steady-state kinetics of 2-ketoacid decarboxylase (ADH/NADH coupled); assay type: biochemical; conditions: relative to GEO 175, same conditions
Experimental: FIG. 6: Depicts results of kinetic characterization of GEO 175 and GEO 175 L376T_T240S. Kinetic constants were measured as described herein. The substrate 2-ketooctanoate carbon chain numbering referred to in the text is numbered in white. According to the molecular model of GEO 175, the double mutation L376T_T240S is predicted to recede the pocket by 1.4 Å and remove interactions between the binding pocket and carbon 8 of the ketoacid alkyl chain. […]
For the native KIVD and KIVD_VLV mutant, 2 ml overnight cultures of XL1B cells were transformed with pQE9 containing N-terminal his-tagged KIVD enzymes and grown in Terrific Broth (BP biomedical, Cat#3046-042) with 50 μg/mL of carbenicillin. […] Protein concentrations were determined using a Synergy H1 spectrophotometer (Biotek) by measuring absorbance at 280 nm using their calculated extinction coefficients with ExPASy ProtParam Tool.^33 All other buffers and salts were purchased from Fisher Scientific unless otherwise specified.
The kcat and KM values of selective KIVD mutants were measured for the substrates: C3, C5, isoC5, and C8. […] Activity was measured at 0.005 mM to 10 mM substrates. […]

[2] = test system: E. coli strain (ATCC 98082 pZS_thrO, pZAlac_ilvA_LeuA, pZE12LeuA*BCDKA6_KIVD_wt); assay: Alcohol toxicity: growth (OD600) of the alcohol production strain over 7 hours; assay type: cell-based; conditions: 7-hour incubation
Experimental: Alcohol tolerance of the in vivo alcohol production strain was evaluated by supplementing the fermentation media with specified quantities of long chain alcohols, and measuring growth over 7 hours. Both the E. coli strain (ATCC 98082 pZS_thrO, pZAlac_ilvA_LeuA, pZE12LeuA*BCDKA6_KIVD_wt) and fermentation media (1×M9 metals+1× trace metal mix+0.5% yeast extract+2% glucose+antibiotics) and conditions are the same as described above (Fermentation procedure and analysis). Cells were grown in media without IPTG-induction to a starting OD600 ˜0.02 and then supplemented with either 1-petanol, 1-hexanol, 1-heptanol, or 1-octanol at specified concentrations of 10 mg/L, 50 mg/L, 250 mg/L, 500 mg/L, or 1000 mg/L. OD600 readings were taken hourly up to 7 hours.

[3] = target: GEO179, 2-ketoacid decarboxylase, SEQ ID NO:14 (Klebsiella variicola, UniProt A0ACD7F8P2, H281L/S236A/T380V); assay: Steady-state kinetics of 2-ketoacid decarboxylase (ADH/NADH coupled); assay type: biochemical; conditions: pH 7.5, 21° C.
Description: (§1) FIG. 20: Depicts results of a structural alignment of GEOs and KIVD (GEO175=SEQ ID NO:2, GEO243=SEQ ID NO:5, GEO 250=SEQ ID NO:6, GEO 242=SEQ ID NO:7, GEO 245=SEQ ID NO:8, GEO 251=SEQ ID NO:9, GEO 247=SEQ ID NO:10, GEO 244=SEQ ID NO:11, GEO 246=SEQ ID NO:12, GEO 248=SEQ ID NO:13, GEO 179=SEQ ID NO:14, GEO 240=SEQ ID NO:15, GEO 195=SEQ ID NO:16, GEO 241=SEQ ID NO:17, GEO 249=SEQ ID NO:4, KIVD_VLV=SEQ ID NO:3). Active site residues are denoted with a black box under the residue letter.
(§2) For the native KIVD and KIVD_VLV mutant, 2 ml overnight cultures of XL1B cells were transformed with pQE9 containing N-terminal his-tagged KIVD enzymes and grown in Terrific Broth (BP biomedical, Cat#3046-042) with 50 μg/mL of carbenicillin. (Fisher scientific, Cat# BP2648-5) For the GEOs, 2 ml overnight cultures of BLR cells were transformed with pet29b+ plasmid containing N-terminal his-tagged GEOs, and grown in Terrific Broth with 50 μg/mL of kanamycin. (Fisher scientific, Cat# BP906-5) These cultures were diluted 1:1000 in 500 mL of Terrific Broth with 1 mM MgSO4, 1% glucose, and 50ug/mL of corresponding antibiotics, then grown at 37° C. for 24 hours. Cultures were pelleted down at 4700 rpm for 10 mins and resuspended in auto-induction media (LB broth, 1 mM MgSO4, 0.1 mM TPP, 1×NPS, and 1×5052) for induction at 18° C. for 34 hours. […] Protein concentrations were determined using a Synergy H1 spectrophotometer (Biotek) by measuring absorbance at 280 nm using their calculated extinction coefficients with ExPASy ProtParam Tool.^33 All other buffers and salts were purchased from Fisher Scientific unless otherwise specified.
(§3) The kcat and KM values of selective KIVD mutants were measured for the substrates: C3, C5, isoC5, and C8. […] Activity was measured at 0.005 mM to 10 mM substrates. […] Absorbance readings were taken every 1-minute at OD340 at 21° C. for 60 minutes using the Synergy H1. Kinetic parameters (kcat and KM) were determined by fitting initial velocity versus substrate concentration data to the Michaelis-Menten equation.

[4] = test system: GEO195, 2-ketoacid decarboxylase, SEQ ID NO:16; assay: as above; assay type: biochemical; conditions: pH 7.5, 21° C.
Description: as §1, §2, §3

[5] = 1000 mg l^−1 alcohol supplemented
[6] = 250 mg l^−1 alcohol supplemented, OD 1.9 without toxicity
[7] = 500 mg l^−1 alcohol supplemented

Sequence of GEO179, 2-ketoacid decarboxylase, SEQ ID NO:14 (A0ACD7F8P2 entry or part of it H281L/S236A/T380V): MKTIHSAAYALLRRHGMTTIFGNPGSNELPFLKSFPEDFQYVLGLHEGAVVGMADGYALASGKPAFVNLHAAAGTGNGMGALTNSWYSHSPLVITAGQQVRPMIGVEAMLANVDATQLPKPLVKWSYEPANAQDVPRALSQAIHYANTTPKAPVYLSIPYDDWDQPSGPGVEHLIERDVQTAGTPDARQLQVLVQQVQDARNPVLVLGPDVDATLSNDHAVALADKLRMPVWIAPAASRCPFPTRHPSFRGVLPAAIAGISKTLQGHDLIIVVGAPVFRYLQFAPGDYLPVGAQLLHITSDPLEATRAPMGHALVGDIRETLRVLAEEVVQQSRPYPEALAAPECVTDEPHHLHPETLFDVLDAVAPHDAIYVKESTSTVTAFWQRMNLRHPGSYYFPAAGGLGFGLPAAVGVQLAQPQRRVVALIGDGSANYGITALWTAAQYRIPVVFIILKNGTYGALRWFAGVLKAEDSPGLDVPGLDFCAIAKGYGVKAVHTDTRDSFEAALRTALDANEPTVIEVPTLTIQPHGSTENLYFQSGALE

| SMILES | decrease in catalytic efficiency relative to GEO 175 [1] | final OD of E. coli cultures [2, 5] | final OD of E. coli cultures [2, 6] | final OD of E. coli cultures [2, 7] | further results |
| --- | --- | --- | --- | --- | --- |
| CC(=O)C(=O)O [C3] | less than 2 fold |  |  |  |  |
| CCCCCO [pentanol, 1-pentanol] |  | 1.5 |  |  |  |
| CCCCCCCCO [C8 alcohol, 1-octanol] |  |  | ~1.0 | No significant growth |  |
| CCCCCCO [hexanol, 1-hexanol] |  | 0.2 | approximately 1.6 | 1.0 |  |
| CCCCCCCO [heptanol, 1-heptanol] |  | no significant growth | approximately 1.6 | 0.1 |  |
| CC(C)C(=O)C(=O)O [iso C5, 2-ketoisovaleric acid] | less than 2 fold |  |  |  | kcat [3]: 0.39 ± 0.01 s⁻¹; Km [4]: 9.1 ± 0.3 mM; kcat [4]: 0.072 ± 0.001 s⁻¹ |
